From patent US20100317581A1, “Ipamorelin Diacetate Injection and Infusion Solutions” (Helsinn Therapeutics (U.S.), Inc., priority 2009, published 2010)
In brackets after ≈: the same amount, converted by molar mass. Where a name gives a salt, the structure may show the parent alone. Read-outs that look alike come from different tables or passages of the source. Where a SMILES comes first, the peptide text is derived from it. [ ]: non-standard residue; d: D form. d2Nal = N[C@H](Cc1ccc2ccccc2c1)C(=O)O; Aib = CC(C)(N)C(=O)O

Assay: Solubility as a function of pH / solubility in pure water
Type: physicochemical
Experimental: The solubility of ipamorelin free base at different pH values is shown graphically in FIG. 1. At pH values less than approximately 10, the drug is very soluble in aqueous media (>100 mg/ml).
This dramatic change in solubility around pH 10 is reflected in the solubilities of ipamorelin free base and its diacetate salt in pure water. The diacetate salt dissolves readily: it is capable of producing solutions greater than 100 mg/ml, with a final pH of about 7.5. The free base is much less soluble; only about 1.5 mg/ml was measured in a saturated solution, pH=9.83. However, solutions of much higher concentration can be achieved by simply adjusting the pH to around neutrality, using a solution of HCl or a similar acid.

solubility (pH 7.5, pure water, final pH of about 7.5, read-out: solubility in pure water) [mg/mL] | solubility (aqueous media, pH values less than approximately 10, read-out: solubility in aqueous media) [mg/mL] | solubility (pure water, saturated solution, pH=9.83, read-out: solubility in pure water (saturated solution)) [mg/mL] | Structure (SMILES)
> 100 |  |  | CC(C)(N)C(=O)N[C@@H](Cc1c[nH]cn1)C(=O)N[C@H](Cc1ccc2ccccc2c1)C(=O)N[C@H](Cc1ccccc1)C(=O)N[C@@H](CCCCN)C(N)=O [diacetate salt] (H-[Aib]H[d2Nal][dF]K-NH2)
 | > 100 | ~1.5 (≈ 2110 µM) | CC(C)(N)C(=O)N[C@@H](Cc1c[nH]cn1)C(=O)N[C@H](Cc1ccc2ccccc2c1)C(=O)N[C@H](Cc1ccccc1)C(=O)N[C@@H](CCCCN)C(N)=O [ipamorelin free base, α-Methylalanine-L-histidine-D-β-(2-naphthyl)-alanine-D-phenylalanine-L-lysinamide] (H-[Aib]H[d2Nal][dF]K-NH2)
